Key:
control lambs = assay: Inhaled NO in control lambs with no drug infusion; assay type: in vivo, Suffolk lambs; conditions: 80 ppm NO, FiO2 0.6-0.7, two lambs
Source text: Eight Suffolk lambs weighing 25-35 kg underwent a sterile thoracotomy in order to place a left atrial line, tracheostomy and femoral artery line under general endotracheal anesthesia with halothane/oxygen three days before study. After three days of recovery the lambs underwent sterile placement of a 7 French thermal dilution pulmonary artery monitoring catheter under local anesthesia.
Awake unanesthetized lambs were studied in order to avoid general anesthesia which can blunt hypoxic vasoconstriction. Lambs were placed in a Babraham cage and allowed to drink and eat ad lib. Two studies were performed 2 days apart on each of six lambs. After the study the lambs were sacrificed with an overdose of barbiturate and heir lungs were fixed, stained and examined by light microscopy for pathological changes.
A pulmonary vasodilator dose response curve plotting changes in PAP as a function of inhaled NO concentration during U46619 infusion was produced for eight lambs breathing a series of increasing NO/O2 mixtures of 5, 10, 20, 40, and 80 ppm NO for six minutes (FIG. 1). Each level of NO exposure was followed by six minutes of breathing the oxygen mixture without NO (FIG. 2). A second exposure to NO was examined for similar periods. Subsequently, a control period breathing the oxygen mixture was studied six minutes after ceasing U46619 infusion. At each three and six minute time period after administering or discontinuing NO during the study, we measured mean and phasic pulmonary artery pressure (PAP), left atrial pressure (LAP), systemic arterial pressure (SAP) and central venous pressure (CVP). All pressures were recorded on a Hewlett Packard multi-channel strip chart recorder with transducers zeroed to atmospheric pressure at the mid point of the thorax (e.g., see FIG. 3). Cardiac output (CO) was measured by thermal dilution as the average of two determinations injecting 5 ml of 0° C. Ringers lactate. Pulmonary vascular resistance (PVR) and systemic vascular resistance (SVR) were computed by standard formulae; PVR measured at each inhaled NO concentration is shown in FIG. 4. Appropriate statistical analyses were performed, and all data were expressed as mean ± standard error.
Two control lambs with no drug infusion breathed 80 ppm NO at an F1 O2 of 0.6-0.7. There was no change of mean PAP, SAP, CO or SVR in these lambs.

PPHN = assay: NO inhalation in two more infants with PPHN; assay type: in vivo, human
Source text: Subsequent subjects. Two more infants with PPHN have been treated by NO inhalation.

[1] = dilute aqueous solution exposed to oxygen; cited from earlier work
[2] = system: methacholine bronchoconstriction; assay: Dose-response of intermittent NO inhalation during methacholine infusion; assay type: in vivo, Hartley strain guinea pigs
Protocol: (§1) Male Hartley strain guinea pigs (300-440g body wt) were anesthetized with α-chloralose (50 mg/kg) and urethane (500 mg/kg) (Drazen et al., J. Appl. Physiol. 48:613-618, 1980). A tracheostomy was performed, and the animals were intubated with a tubing adaptor (ID 1.65 mm) and ventilated with a small animal ventilator (Harvard Apparatus, a division of Ealing Scientific, Natick, Mass.) at 8 ml/kg and 60 breaths/min. A jugular vein was cannulated for intravenous administration of drugs. The chest was opened by bilateral excision of a portion of the ribs anteriorly so that the lungs were exposed to atmospheric pressure (Shore and Drazen, J. Appl. Physiol. 67:2504-2511, 1989). A positive end expiratory pressure of 3-4 cmH2 O was provided.
Guinea pigs were then placed inside a plethysmograph (Amdur and Mead, Am. J. Physiol. 192:363-368, 1958), that was connected to a large reservoir containing copper mesh to maintain the plethysmograph isothermal. Plethysmograph pressure was measured with a differential pressure transducer (Celesco, Canoga Park, Calif.); the opposite side of this transducer was connected to a similar reservoir. Pressure at the airway opening was measured from a side tap in the tracheal canula. Transpulmonary pressure was measured with a differential pressure transducer (Celesco) as the difference between airway opening pressure and the pressure inside the plethysmograph. Flow was obtained by electrical differentiation of the volume (plethysmograph pressure) signal. Tidal volume was measured by recording the pressure changes in the body plethysmograph. Volume, flow, and transpulmonary pressure signals were recorded on a strip chart (General Scanning, Watertown, Mass.). Pulmonary resistance and dynamic compliance were calculated by a computer program according to the method of von Neergard and Wirz (Z. Klin. Med. 105:35-50, 1927; Z. Klin. Med. 105:52-82, 1927).
The apparatus and conditions used are diagrammed in FIG. 7. The inspired gas was a precise mixture of nitrogen and oxygen blended via a Y piece tube and immediately diluted with nitric oxide (NO) to produce the correct inspired concentration in a 5 liter gas mixture bag. With volumetrically calibrated flowmeters, varying quantities of NO mixed with N2 were substituted for pure N2 to obtain the desired No concentration at an inspired oxygen concentration (FIO2) of 0.30-0.32. The total inflow gas rate was maintained at 2.5 l/min. The gas mixture was then sent via a 3 cm ID tube filled with 90 ml of soda lime to scavenge nitrogen dioxide (Stavert and Lehnert, Inhal. Toxicol. 2:53-67, 1990), then through a filter before the ventilator. Just after the ventilator inflow tube, a vacuum was adjusted to maintain the gas mixture bag nearly empty and continuously drive fresh gas into the ventilator circuit. The expiratory gas from the ventilator was scavenged with a vacuum and set up to maintain a positive end expiratory pressure of 3-4 cm H2 O. NO was obtained from Air Products and Chemicals, Inc. (Allentown, Pa.) as a mixture of 1,034 ppm NO in pure nitrogen. A chemiluminescence NO/NOx analysis (Fontijin et al., Anal. Chem. 42:575-579, 1970) was performed before and after the soda lime filled tube, and just before the inspiratory valve of the ventilator (see FIG. 7) to assess the nitrogen dioxide concentration and adjust the flowmeters to provide the different levels of NO concentration.
ii. Dose-response study of intermittent NO inhalation during methacholine infusion. After baseline measurements, the same guinea pigs were given an intravenous infusion of a potent bronchoconstrictor, methacholine, at a rate of 2.5-7.5 μg/kg/min in order to reach a medium level of bronchoconstriction (3 to 4 fold the baseline lung resistance). After a stable period, each animal was ventilated with a series of gas mixtures of 5, 10, 25, 50, 100 and 300 ppm NO for 10 minutes at constant FIO2 (0.30-0.32). […]

normal bronchial tone = assay: NO effects on normal bronchial tone; assay type: in vivo, Hartley strain guinea pigs; conditions: 300 ppm NO, without methacholine infusion (FIG. 8)
Protocol: as §1
Guinea pigs were then placed inside a plethysmograph (Amdur and Mead, Am. J. Physiol. 192:363-368, 1958), that was connected to a large reservoir containing copper mesh to maintain the plethysmograph isothermal. Plethysmograph pressure was measured with a differential pressure transducer (Celesco, Canoga Park, Calif.); the opposite side of this transducer was connected to a similar reservoir. Pressure at the airway opening was measured from a side tap in the tracheal canula. Transpulmonary pressure was measured with a differential pressure transducer (Celesco) as the difference between airway opening pressure and the pressure inside the plethysmograph. […]

[3] = NO-containing gas mixtures (FIGS. 9-12)

Q: Which results are given for `[N]=O` [NO, nitric oxide]?
A: CO (control lambs): no change; SAP (control lambs): no change; SVR (control lambs): no change; mean PAP (control lambs): no change; preductal oxygenation (PPHN; 20-80 ppm NO): increases in preductal oxygenation; response (PPHN; 20-80 ppm NO): excellent response; survival (PPHN; 20-80 ppm NO, two infants): both survived longterm; need for ECMO (PPHN; one of the infants, NO inhalation alone): ECMO was altogether avoided; half life [1]: less than 10 seconds; bronchodilation ([2]; 5 ppm NO): produced bronchodilation; airway resistance ([2]; 100 or 300 ppm NO): greater and more rapid reduction of airway resistance; reversal of methacholine bronchoconstriction ([2]; 300 ppm NO): Complete reversal of methacholine bronchoconstriction; lung compliance [2, 3]: increase of lung compliance; lung resistance [2, 3]: consistent, rapid and profound reduction of lung resistance; onset of dilation ([2]; after inhalation): within a few seconds; reversal of methacholine bronchoconstriction ([2]; nitric oxide inhalation): reversed the profound bronchoconstriction; baseline bronchomotor tone (normal bronchial tone): decreased the baseline bronchomotor tone

From patent US5873359A, “Methods and devices for treating pulmonary vasoconstriction and asthma” (The General Hospital Corporation, priority 1994, dated 1999)
